According to ChEMBL document CHEMBL5465560, “Selectivity Literature for EUbOPEN Chemogenomic Library” (2024):
One block for each compound: values may come before it.

How the values were obtained:
[1] = molecular target: Proto-oncogene tyrosine-protein kinase receptor Ret (Homo sapiens, UniProt P07949); assay: Selectivity interaction (KinaseProfiler screening (Millipore)) EUB0000601a RET; conditions: at 3 µM
SRSF protein kinase 1 = SRSF protein kinase 1 (Homo sapiens, UniProt Q96SB4); assay: Selectivity interaction (ActivX KiNativ screen (kinase selectivity in THP-1 cell lysates)) EUB0000639a SRPK1; assay type: subcellular; conditions: lysate
Sequence of SRSF protein kinase 1 (Q96SB4 whole entry): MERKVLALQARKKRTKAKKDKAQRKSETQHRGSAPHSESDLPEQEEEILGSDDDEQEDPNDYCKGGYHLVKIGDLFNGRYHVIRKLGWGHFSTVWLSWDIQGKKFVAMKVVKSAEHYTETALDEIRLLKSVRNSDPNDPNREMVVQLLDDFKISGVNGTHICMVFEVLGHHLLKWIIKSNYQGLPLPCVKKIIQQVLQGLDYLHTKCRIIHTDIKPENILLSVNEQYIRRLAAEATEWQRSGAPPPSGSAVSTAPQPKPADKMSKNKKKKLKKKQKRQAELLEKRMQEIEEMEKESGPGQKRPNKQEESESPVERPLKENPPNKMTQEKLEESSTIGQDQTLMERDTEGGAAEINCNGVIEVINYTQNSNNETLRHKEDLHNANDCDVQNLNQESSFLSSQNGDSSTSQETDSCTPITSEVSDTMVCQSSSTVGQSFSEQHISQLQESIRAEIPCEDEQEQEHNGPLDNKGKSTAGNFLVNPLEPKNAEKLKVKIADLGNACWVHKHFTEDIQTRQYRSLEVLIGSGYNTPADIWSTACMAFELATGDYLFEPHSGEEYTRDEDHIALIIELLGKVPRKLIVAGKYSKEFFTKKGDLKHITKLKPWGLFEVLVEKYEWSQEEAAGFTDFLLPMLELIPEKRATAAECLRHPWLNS

[2] = molecular target: Insulin receptor-related protein (Homo sapiens) (UniProt P14616); assay: Selectivity interaction (Kinase panel (Invitrogen)) EUB0000639a INSRR; conditions: at 200 nM
[3] = molecular target: Phosphatidylinositol 4,5-bisphosphate 3-kinase catalytic subunit alpha isoform (Homo sapiens) (UniProt P42336); assay: Selectivity interaction (Adapta Assay) EUB0001632a PIK3CA; conditions: at 10 µM
Sequence of Phosphatidylinositol 4,5-bisphosphate 3-kinase catalytic subunit alpha isoform (Homo sapiens) (P42336 whole entry, canonical isoform): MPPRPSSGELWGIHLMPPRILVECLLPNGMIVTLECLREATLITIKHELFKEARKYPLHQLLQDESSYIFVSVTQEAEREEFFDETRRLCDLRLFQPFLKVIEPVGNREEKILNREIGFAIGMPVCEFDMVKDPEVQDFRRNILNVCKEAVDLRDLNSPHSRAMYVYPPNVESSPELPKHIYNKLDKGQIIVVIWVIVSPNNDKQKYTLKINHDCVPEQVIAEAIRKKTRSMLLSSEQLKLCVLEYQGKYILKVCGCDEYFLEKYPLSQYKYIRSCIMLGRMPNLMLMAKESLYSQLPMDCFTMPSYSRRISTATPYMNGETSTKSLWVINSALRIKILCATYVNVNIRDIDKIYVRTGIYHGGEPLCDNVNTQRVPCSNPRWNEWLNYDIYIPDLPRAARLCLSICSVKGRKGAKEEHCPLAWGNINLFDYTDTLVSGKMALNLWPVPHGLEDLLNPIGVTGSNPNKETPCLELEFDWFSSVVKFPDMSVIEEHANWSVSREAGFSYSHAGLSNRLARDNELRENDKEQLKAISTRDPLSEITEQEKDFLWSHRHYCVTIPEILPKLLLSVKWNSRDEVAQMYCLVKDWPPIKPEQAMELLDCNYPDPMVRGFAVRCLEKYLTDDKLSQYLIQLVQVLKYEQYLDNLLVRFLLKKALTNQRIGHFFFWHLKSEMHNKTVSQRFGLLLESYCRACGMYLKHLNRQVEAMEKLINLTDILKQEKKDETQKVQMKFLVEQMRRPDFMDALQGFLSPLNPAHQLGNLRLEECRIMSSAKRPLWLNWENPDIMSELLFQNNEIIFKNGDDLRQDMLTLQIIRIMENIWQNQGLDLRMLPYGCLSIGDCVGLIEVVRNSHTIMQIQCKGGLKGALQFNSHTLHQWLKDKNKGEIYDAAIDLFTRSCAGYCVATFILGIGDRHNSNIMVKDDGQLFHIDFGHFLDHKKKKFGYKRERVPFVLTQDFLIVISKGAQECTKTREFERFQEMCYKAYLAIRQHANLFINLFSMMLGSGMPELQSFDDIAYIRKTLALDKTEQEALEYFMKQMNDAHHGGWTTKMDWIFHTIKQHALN

[4] = molecular target: Myosin light chain kinase, smooth muscle (Homo sapiens, UniProt Q15746); assay: Selectivity interaction (LanthaScreen Eu Kinase Binding Assay) EUB0001632a MYLK; conditions: at 10 µM
Sequence of Myosin light chain kinase, smooth muscle (Q15746 whole entry): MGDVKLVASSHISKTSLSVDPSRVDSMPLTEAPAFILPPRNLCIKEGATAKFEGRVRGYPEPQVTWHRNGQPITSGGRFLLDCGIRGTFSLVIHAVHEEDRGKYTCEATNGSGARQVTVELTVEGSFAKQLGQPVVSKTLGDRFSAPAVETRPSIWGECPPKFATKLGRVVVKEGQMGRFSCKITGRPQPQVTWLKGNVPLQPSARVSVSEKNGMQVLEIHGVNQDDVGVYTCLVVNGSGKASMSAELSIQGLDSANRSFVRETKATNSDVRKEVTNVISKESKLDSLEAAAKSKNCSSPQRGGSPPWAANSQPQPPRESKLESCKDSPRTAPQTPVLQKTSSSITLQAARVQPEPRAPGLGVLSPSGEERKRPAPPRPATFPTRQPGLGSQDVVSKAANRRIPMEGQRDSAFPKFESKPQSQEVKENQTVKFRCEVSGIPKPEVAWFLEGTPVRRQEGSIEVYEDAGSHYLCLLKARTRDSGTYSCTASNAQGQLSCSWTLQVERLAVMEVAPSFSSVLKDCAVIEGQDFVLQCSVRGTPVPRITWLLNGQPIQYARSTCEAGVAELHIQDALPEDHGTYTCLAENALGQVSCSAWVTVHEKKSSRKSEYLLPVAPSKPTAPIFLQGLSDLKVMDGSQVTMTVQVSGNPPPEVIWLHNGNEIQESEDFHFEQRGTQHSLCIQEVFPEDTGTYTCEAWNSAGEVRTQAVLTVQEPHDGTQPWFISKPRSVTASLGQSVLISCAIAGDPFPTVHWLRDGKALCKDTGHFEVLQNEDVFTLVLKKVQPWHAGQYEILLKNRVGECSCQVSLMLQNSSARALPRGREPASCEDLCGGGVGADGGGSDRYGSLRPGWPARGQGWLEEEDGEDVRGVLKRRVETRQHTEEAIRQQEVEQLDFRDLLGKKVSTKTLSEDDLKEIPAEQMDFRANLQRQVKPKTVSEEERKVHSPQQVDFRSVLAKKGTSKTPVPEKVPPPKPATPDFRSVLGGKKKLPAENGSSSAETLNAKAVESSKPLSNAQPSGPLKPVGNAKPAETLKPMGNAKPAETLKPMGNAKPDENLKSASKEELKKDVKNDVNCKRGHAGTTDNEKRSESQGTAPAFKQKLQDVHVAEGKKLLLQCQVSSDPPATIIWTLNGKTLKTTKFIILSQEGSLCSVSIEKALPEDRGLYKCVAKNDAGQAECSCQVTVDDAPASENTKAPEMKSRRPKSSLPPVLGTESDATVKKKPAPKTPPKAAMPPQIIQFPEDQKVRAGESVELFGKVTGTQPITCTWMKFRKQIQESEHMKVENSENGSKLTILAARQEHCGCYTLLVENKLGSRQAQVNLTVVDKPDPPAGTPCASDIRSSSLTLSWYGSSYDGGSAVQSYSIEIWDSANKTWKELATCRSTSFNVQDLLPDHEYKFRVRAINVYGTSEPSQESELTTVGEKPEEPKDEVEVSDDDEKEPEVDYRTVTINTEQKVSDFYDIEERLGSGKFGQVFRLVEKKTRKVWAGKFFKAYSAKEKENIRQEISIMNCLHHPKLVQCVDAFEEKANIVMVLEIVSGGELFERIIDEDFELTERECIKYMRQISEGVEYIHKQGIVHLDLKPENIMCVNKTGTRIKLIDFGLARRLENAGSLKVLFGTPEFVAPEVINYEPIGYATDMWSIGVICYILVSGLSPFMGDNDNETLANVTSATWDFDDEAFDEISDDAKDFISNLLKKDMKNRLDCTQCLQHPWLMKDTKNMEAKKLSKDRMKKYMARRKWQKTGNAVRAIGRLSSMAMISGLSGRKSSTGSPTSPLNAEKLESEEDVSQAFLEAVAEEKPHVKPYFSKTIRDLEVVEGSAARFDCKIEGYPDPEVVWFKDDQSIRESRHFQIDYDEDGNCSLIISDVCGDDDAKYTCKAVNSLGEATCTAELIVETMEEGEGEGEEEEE

[5] = molecular target: T1, Serine/threonine-protein kinase PLK4 (Homo sapiens) (UniProt O00444); conditions: at 10 µM
T1 sequence (whole entry): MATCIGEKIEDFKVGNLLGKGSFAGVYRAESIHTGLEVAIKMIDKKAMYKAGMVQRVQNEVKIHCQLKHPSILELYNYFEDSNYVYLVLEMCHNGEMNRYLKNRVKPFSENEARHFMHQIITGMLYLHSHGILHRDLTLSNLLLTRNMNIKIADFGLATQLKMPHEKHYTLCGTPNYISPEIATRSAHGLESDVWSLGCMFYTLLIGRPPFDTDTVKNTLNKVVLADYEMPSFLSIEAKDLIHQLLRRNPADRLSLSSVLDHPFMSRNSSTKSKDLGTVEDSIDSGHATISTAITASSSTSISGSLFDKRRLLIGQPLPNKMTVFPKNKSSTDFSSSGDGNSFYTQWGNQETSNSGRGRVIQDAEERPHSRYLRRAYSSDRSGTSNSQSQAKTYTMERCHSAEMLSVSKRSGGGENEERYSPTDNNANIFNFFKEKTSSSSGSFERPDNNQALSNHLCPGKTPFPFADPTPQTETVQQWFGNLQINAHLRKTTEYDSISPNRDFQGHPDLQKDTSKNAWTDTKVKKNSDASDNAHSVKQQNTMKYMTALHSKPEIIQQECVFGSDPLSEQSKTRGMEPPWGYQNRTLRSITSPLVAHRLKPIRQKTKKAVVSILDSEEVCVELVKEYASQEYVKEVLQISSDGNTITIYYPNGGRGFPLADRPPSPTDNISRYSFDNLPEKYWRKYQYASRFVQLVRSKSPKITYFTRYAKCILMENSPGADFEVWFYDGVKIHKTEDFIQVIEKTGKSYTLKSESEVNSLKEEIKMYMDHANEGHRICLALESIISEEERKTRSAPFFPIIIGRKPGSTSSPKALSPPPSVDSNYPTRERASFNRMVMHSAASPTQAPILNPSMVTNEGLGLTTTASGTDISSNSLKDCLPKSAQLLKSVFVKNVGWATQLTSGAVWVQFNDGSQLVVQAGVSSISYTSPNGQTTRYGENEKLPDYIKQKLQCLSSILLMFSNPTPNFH

[6] = molecular target: Delta-type opioid receptor (Homo sapiens, UniProt P41143); assay: Selectivity interaction (GPCR panel (PDSP screen)) EUB0001079a OPRD1; conditions: at 10 µM
Sequence of Delta-type opioid receptor (P41143 whole entry, the tested form may be a part): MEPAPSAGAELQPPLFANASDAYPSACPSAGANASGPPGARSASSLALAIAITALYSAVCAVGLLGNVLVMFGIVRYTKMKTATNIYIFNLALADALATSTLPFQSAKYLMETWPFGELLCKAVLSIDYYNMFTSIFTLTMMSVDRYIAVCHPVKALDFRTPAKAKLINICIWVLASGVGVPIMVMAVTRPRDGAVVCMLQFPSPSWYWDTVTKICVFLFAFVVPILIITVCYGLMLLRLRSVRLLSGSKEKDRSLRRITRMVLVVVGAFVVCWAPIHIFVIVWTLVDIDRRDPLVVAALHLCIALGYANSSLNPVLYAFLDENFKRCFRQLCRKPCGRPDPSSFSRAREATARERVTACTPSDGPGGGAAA

[7] = molecular target: T2, Discoidin domain-containing receptor 2 (Homo sapiens) (UniProt Q16832); assay: Selectivity interaction (KinomeScan (DiscoverX)) EUB0000092b DDR2; conditions: at 10 µM
T2 sequence (whole entry): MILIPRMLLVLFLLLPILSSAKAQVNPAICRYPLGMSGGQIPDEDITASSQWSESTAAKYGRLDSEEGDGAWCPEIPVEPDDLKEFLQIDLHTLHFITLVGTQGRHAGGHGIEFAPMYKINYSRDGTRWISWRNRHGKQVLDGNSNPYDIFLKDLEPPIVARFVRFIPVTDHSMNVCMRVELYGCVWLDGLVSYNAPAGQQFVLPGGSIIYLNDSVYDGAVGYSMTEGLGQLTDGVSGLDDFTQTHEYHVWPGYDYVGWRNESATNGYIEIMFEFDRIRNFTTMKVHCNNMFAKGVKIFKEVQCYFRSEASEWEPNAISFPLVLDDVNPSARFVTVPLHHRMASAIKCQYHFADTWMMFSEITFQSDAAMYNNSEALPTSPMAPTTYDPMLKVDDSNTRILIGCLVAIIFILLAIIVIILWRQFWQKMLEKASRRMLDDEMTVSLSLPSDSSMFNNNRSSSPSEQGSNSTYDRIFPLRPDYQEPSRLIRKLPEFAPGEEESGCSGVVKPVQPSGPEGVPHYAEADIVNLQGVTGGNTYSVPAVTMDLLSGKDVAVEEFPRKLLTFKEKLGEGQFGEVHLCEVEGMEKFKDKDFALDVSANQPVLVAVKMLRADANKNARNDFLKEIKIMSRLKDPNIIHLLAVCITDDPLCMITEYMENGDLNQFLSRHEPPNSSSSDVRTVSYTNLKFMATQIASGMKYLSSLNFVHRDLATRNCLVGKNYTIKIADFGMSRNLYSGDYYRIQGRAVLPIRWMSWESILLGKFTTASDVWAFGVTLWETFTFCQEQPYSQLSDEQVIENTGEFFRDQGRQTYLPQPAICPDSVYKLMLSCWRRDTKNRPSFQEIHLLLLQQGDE

[8] = molecular target: Glycogen synthase kinase-3 beta (Homo sapiens, UniProt P49841); assay: Selectivity interaction (KinomeScan (DiscoverX)) EUB0000655a GSK3B; conditions: at 10 µM
Sequence of Glycogen synthase kinase-3 beta (P49841 whole entry, looked up): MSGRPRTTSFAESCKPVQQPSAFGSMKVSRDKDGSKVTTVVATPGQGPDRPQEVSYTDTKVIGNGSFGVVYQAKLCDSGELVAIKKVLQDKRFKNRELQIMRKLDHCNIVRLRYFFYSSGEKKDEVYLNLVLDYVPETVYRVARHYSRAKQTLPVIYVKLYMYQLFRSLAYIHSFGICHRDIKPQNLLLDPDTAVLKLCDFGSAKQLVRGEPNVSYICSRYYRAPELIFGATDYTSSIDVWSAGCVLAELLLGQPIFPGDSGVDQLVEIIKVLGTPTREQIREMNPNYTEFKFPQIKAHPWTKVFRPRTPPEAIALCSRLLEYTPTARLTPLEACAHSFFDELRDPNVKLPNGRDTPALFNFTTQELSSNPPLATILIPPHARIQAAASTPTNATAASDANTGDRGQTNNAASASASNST

[9] = molecular target: Serine/threonine-protein kinase ICK (Homo sapiens, UniProt Q9UPZ9); assay: Selectivity interaction (Kinase panel (Invitrogen, enzymatic assay)) EUB0000162b ICK
Sequence of Serine/threonine-protein kinase ICK (Q9UPZ9 whole entry): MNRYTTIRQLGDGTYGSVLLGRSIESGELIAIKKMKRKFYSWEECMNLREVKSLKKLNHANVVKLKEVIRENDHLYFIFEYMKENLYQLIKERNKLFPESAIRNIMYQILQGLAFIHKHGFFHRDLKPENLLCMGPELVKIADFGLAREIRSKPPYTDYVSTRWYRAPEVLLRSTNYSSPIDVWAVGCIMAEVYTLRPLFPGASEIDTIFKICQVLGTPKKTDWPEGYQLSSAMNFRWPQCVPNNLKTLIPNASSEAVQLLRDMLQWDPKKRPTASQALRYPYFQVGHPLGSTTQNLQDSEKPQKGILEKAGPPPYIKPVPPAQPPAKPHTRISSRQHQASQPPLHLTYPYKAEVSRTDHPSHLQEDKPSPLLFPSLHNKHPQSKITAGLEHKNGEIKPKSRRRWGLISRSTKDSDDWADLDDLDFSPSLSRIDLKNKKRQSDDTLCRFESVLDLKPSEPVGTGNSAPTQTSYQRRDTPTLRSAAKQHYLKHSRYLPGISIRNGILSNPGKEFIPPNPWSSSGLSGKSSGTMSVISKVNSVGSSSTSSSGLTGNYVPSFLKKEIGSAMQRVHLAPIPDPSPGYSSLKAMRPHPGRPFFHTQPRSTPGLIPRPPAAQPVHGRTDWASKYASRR

Insulin receptor = Insulin receptor (Homo sapiens, UniProt P06213); assay: Selectivity interaction (KinomeScan (DiscoverX)) EUB0000607a INSR; conditions: at 10 µM

- % of inhibition [1]: 52%
SMILES: CCc1cc(Nc2nccc(-c3c(-c4ccc(OC)c(C(=O)Nc5c(F)cccc5F)c4)nc4ccccn34)n2)c(OC)cc1N1CCC(N2CCN(S(C)(=O)=O)CC2)CC1

- % of inhibition (SRSF protein kinase 1; at 0.01 µM): 6.9%
- % of inhibition (SRSF protein kinase 1; at 0.04 µM): -23%
- % of inhibition (SRSF protein kinase 1; at 0.2 µM): -5.5%
- % of inhibition (SRSF protein kinase 1; at 1 µM): 11.7%
- % of inhibition (SRSF protein kinase 1; at 5 µM): 19.9%
- % of inhibition [2]: 2.97%
SMILES: CC[C@@H]1[C@H](F)C(=O)N[C@@H]1COc1nccc2cc(C(N)=O)c(OC)cc12 [ZIMLOVISERTIB]

- % of inhibition [3]: 37.1%
- % of inhibition [4]: -1.03%
SMILES: Cn1cc(-n2cnc3c(NCc4nc5cc(Cl)c(Cl)cc5[nH]4)nc(N4CCOCC4)nc32)cn1

- % of control [5]: 100%
SMILES: CCN(CC)CCCCNc1ncc2cc(-c3cc(OC)cc(OC)c3)c(NC(=O)NC(C)(C)C)nc2n1

SMILES: Nc1cnc(N2CCc3cc(S(=O)(=O)Nc4c(F)cc(Cl)cc4F)cc(N4CCCC4=O)c32)nc1 [TP-020n]
- % of inhibition [6]: -1.24%

SMILES: CCC(=O)N1CCN(c2ccc(-n3c(=O)ccc4cnc5ccc(-c6cnc7ccccc7c6)cc5c43)cc2C(F)(F)F)CC1
- % of control [7]: 100%

SMILES: CN(C)CCOc1ccc(-c2nc(-c3ccncc3)c(-c3ccc4c(c3)CC/C4=N\O)[nH]2)cc1
- % of control [8]: 81%

- IC50 [9]: 2390 nM
SMILES: CN(C)C(=O)Cn1cc(-c2ccc(-c3cncc4ccccc34)cc2)cn1

SMILES: CNC(=O)Nc1ccc(-c2nc(N3CC4CCC(C3)O4)c3cnn(C4CCC5(CC4)OCCO5)c3n2)cc1
- % of control (Insulin receptor): 84%
